Assay results reported in paper PMC13198932, “Pyrazolone-based ERO1 inhibitors in ERO1-driven triple-negative breast cancer and SEPN1-related myopathy: Structure–activity relationship and therapeutic potential” (Pharmacological research, 2025).
Where “and” joins values, the source holds several entries; their conditions need not be identical. Equal entries are not always repeated. Entries after “also recorded” stand apart in the source; their conditions may differ. Where two headings read alike, the source gives them in different places.

Columns and labels:
recombinant ERO1A = target: T1, recombinant ERO1A (Mus musculus, UniProt Q8R180); experiment: AUR-based kinetic assay of ERO1A activity (recombinant ERO1A and PDIA1, HRP, Amplex Ultra Red); assay type: biochemical; settings: for IC50: Table 1 in Fig. 3
T1 construct: GST-SMT3-mouse ERO1A (residues 43–464); GST-SMT3 (GST-SUMO) (N, cleaved yes); made in house; host or cells: E. coli Rosetta DE3 (Novagen)
T1 sequence (Q8R180 43-464): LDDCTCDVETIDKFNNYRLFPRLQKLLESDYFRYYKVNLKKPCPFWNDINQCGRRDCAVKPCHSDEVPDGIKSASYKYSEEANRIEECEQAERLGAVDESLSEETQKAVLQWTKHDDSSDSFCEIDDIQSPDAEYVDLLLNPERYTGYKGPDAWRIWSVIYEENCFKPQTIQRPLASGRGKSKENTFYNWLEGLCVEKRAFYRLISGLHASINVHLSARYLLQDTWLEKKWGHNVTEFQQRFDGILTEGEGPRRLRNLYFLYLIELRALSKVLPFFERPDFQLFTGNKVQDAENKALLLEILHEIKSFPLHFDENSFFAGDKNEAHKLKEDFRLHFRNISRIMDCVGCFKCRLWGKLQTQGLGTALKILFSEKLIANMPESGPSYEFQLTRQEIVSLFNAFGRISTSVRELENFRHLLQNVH
Description: A GST-SMT3-mouse ERO1A (residues 43–464) and His-tagged PDIA1 [30] were expressed in the Rosetta DE3 bacteria (Novagen) and purified as described in [29, 31]. The GST-SMT3 and His tags were cleaved using Ulp protease (Z03691, GenScript) and thrombin protease (T6884, Merck), respectively. Successful tag removal was confirmed by a shift to a lower molecular weight for ERO1A on SDS-PAGE and by the absence of signal in anti-His immunoblotting for PDIA1.
The kinetic assay of ERO1A activity is based on a reaction involving recombinant ERO1A and PDIA1 proteins, horseradish peroxidase (Worthington), and 5 μM Amplex Ultra Red, as detailed in [29]. The effect of ERO1A inhibitors was evaluated by preincubating the compounds with ERO1A and measuring the inhibition of the linear reaction rate, and the corresponding IC50 values were determined using Prism 10 (GraphPad).
EN460 and 16 newly synthesized derivatives (I24–I40) (except for I31, which was not evaluated due to potential toxicity associated with its CN group) were evaluated for their ability to inhibit ERO1-dependent AUR fluorescence using a kinetic assay with recombinant ERO1 and PDIA1, as previously described (Figs. 3A and 3B). Raw kinetic data showing AUR fluorescence over time in reactions containing reduced ERO1, PDIA1 and EN460-derivatives are presented in Fig. Sup.1 A and Sup. 1B. Reaction rates, measured in presence or absence of varying concentrations of each compound, were used to calculate IC50 values, defined as the concentration required to inhibit 50 % of ERO1 enzymatic activity (Figs. 3C, 3D and Fig. Sup1C).

[1] = parameters: method as in PMID 37132383; settings: cited from earlier work
WT and SEPN1 KO mice = experiment: Whole-body plethysmography in WT and SEPN1 KO mice; assay type: in vivo; settings: 10 mg/kg i.p. once daily for five days
Method: Wild-type (WT) and SEPN1 knockout (KO) C57BL/6 male mice, aged 4 months, were fed either a selenium-deficient diet or a diet containing 0,4 ppm selenium for four months (cod. 10105101, Charles River). Experimental protocols followed D.lgs. 26/2014 (authorization 19/2008-A; authorization 465/2023-PR to E. Zito). All animal experiments were performed in accordance with the ARRIVE guidelines and complied with relevant national and international laws, regulations, and policies governing the care and use of laboratory animals, including Italian law.
Wild-type (WT) and SEPN1 knockout (KO) male mice, previously fed a selenium-deficient diet or a diet containing 0.4 ppm selenium, were randomized to receive intraperitoneal (i.p.) injections of I29 or vehicle alone. Treatments were administered once daily for five consecutive days at a dose of 10 mg/kg. Twenty-four hours after the final injection, mice underwent whole-body plethysmography (Whole Body Plethysmography by emkaTechnologies) under baseline conditions in ambient air to assess several respiratory parameters reflecting ventilatory efficiency. In particular, tidal volume (TV), breathing frequency (f), peak inspiratory flow (PIF), and mean inspiratory flow (TV/inspiratory time [TI]) were measured. Both intra- and inter-subject coefficients of variation (CV) for TV and f were also computed.

[2] = compounds dissolved in DMSO, preincubated with ERO1A, NA stands for not active, read-out: IC50
[3] = logarithm of IC50 in μM, compounds dissolved in DMSO, read-out: Log IC50 (confidence intervals) (converted)
[4] = selenium-supplemented (0.4 ppm) SEPN1 KO mice

O=C(O)c1cc(N2N=C(C(F)(F)F)/C(=C\c3ccc(-c4ccccc4)o3)C2=O)ccc1Cl [EN460, reference compound]
IC50 (recombinant ERO1A; [2]): 6 µM
IC50 (recombinant ERO1A; [3]): 5.89 µM
aqueous solubility [1]: poor aqueous solubility

O=C1/C(=C/c2ccc(-c3ccccc3)o2)C(C(F)(F)F)=NN1c1ccccc1F [I29]
IC50 / potency relative to EN460 (recombinant ERO1A; compared with EN460): more than two times lower; also recorded: twofold lower; also recorded: approximately twofold higher activity; also recorded: twofold increase in potency
ERO1 inhibitory activity (in words) (recombinant ERO1A; compounds dissolved in DMSO): highest potency
IC50 (recombinant ERO1A; [2]): 2.6 µM and ~2.6 µM
IC50 (recombinant ERO1A; [3]): 2.63 µM
respiratory function (WT and SEPN1 KO mice; SEPN1 KO mice): failed to improve respiratory function
respiratory parameters (WT and SEPN1 KO mice; WT mice, independent of selenium content in the diet): mild improvement in respiratory parameters
variability in tidal volume (CV TV) (WT and SEPN1 KO mice; selenium-deficient SEPN1 KO mice): increased CV TV
variability in respiratory frequency (CV f) (WT and SEPN1 KO mice; [4]): concomitant reduction in CV f
variability in tidal volume (CV TV) (WT and SEPN1 KO mice; [4]): consistently reduced CV TV
